Consider 48 compounds from patent US8975415B2, “Chromane compounds” (CoMentis, Inc., priority 2012, dated 2015).

One assay concerns the target T1, BACE1 (Homo sapiens (Human), UniProt P56817). In words: Measurement of Aβ production inhibition in cell (SK-N-BE(2) neuroblastoma cells, Aβ40 ELISA). The following applies: Test Example 3 IC50, Aβ40 production, SK-N-BE(2) cells, 6 hours.
Target sequence in this assay (P56817 46-501): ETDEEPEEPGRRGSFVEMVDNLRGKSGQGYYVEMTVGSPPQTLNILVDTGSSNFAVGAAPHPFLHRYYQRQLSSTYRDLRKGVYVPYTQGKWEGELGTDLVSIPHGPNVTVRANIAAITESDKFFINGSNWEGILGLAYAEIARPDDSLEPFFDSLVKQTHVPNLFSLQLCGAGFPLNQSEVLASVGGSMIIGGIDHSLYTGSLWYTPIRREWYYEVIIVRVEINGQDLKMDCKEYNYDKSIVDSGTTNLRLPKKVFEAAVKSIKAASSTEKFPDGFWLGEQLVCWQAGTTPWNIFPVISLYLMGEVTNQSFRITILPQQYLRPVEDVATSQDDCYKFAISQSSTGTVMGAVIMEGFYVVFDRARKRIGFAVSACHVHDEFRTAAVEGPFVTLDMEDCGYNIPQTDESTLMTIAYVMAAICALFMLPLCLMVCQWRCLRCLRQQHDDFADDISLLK
Method: The potency of compounds against BACE1 activity was determined in a cellular assay of Aβ production. […] Test compounds were dissolved in dimethyl sulfoxide and diluted with dimethyl sulfoxide and put into RPMI1640/5% FBS/penicillin-streptomycin media (final dimethyl sulfoxide concentration is 0.5%). […] CellTiter-Glo Substrate was dissolved into CellTiter-Glo Buffer and added to the plates in 95 μL/well. After shaking the plates for 2 minutes, the whole sample was transferred into a white 96-well plate and luminescence was measured for ATP quantification as the cell viability. Aβ concentration measured by ELISA was normalized by the viability of the corresponding cells.
Usually IC50 stands for the concentration needed to halve the response being measured. The compound `N#Cc1cncc(-c2ccc3c(c2)C2(COC(N)=N2)C2(COC2)C2(CCC2)O3)c1` (stereo not shown) [RP 120] showed a half-inhibitory concentration (IC50) of 2.3 µM. The compound `CC#Cc1ccnc(-c2ccc3c(c2)C2(COC(N)=N2)C2(COC2)CO3)c1` (stereo not shown) [RP 56] came in with an IC50 of 0.74 µM.

The target in the next assay is T1, BACE1. Description: Measurement of BACE1 inhibition by fluorescence resonance energy transfer (FRET), MCA substrate. The following applies: read-out: Test Example 1 BACE1 MCA Ki; FRET, MCA substrate.
Target sequence in this assay (P56817 75-416): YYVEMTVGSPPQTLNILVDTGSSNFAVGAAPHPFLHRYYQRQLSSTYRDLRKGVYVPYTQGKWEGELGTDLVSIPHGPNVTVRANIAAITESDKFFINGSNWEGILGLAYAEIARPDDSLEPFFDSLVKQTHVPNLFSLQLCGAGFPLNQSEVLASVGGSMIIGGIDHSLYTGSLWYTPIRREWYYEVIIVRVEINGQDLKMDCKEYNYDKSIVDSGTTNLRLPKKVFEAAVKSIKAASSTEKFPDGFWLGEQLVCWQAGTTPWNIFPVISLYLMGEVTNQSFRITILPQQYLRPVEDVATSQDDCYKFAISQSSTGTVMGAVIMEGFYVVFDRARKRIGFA
Broadly, the Ki is a dissociation constant, usually derived from enzyme kinetics or from competition with a known ligand. With `NC1=NC2(CO1)c1cc(NC(=O)c3ccc(Cl)cn3)ccc1OCC21CC1` (stereo not shown) [RP 32], the Ki was found to be 0.378 µM.

Staying with this assay, now noted: read-out: Test Example 1 IC50; FRET, MCA-SEVNLDAEFK(DNP)-NH2 substrate, pH 4.4.
In the case of `CCC1Oc2ccc(Br)cc2C2(COC(N)=N2)C12COC2` (single isomer, unassigned) [RP 9a], the 50% inhibitory concentration (IC50) stood at 17.3 µM. `N#Cc1cncc(-c2ccc3c(c2)C2(COC(N)=N2)C2(COC2)C2(CCC2)O3)c1` (stereo not shown) [RP 120]: the IC50 worked out at 1.89 µM. As to `NC1=NC2(COC1)c1cc(Br)ccc1OCC21COC1` (stereo not shown) [RP 114, 6′-bromo-6H-dispiro[1,4-oxazine-3,4′-chromene-3′,3″-oxetan]-5-amine], the concentration for half-maximal inhibition (IC50) worked out at 68.3 µM. `NC1=NC2(CO1)c1cc(Br)ccc1OCC21CCC1` (stereo not shown) [RP 8]: the concentration for half-maximal inhibition (IC50) amounted to 61.3 µM. In the case of `NC1=NC2(CO1)c1cc(-c3cccnc3C(F)(F)F)ccc1OC1(CCC1)C21COC1` (stereo not shown) [RP 212], the concentration for half-maximal inhibition (IC50) stood at 17.6 µM.

In the case of `NC1=NC2(CO1)c1cc(Br)ccc1OCC21CC1` (stereo not shown) [RP 17], the IC50 was determined as 30.2 µM. Still for that read-out and setting: in the case of `COCCCc1ccc2c(c1)C1(COC(N)=N1)C1(COC1)CO2` (stereo not shown) [RP 35] it was 26 µM. As for `NC1=NC2(CO1)c1cc(-c3cncnc3)ccc1OCC21CCCO1` (stereo not shown) [RP 98], the IC50 turned out to be 64.1 µM. Regarding `CC(C)CC1Oc2ccc(Br)cc2C2(COC(N)=N2)C12COC2` (single isomer, unassigned) [RP 13b], the half-maximal inhibitory concentration (IC50) was found to be 19.3 µM. The same measure, in the same setting: in the case of `NC1=NC2(CO1)c1cc(Br)ccc1OCC21CC(F)(F)C1` (stereo not shown) [RP 188] it was 50.6 µM; in that of `CC1(C)Oc2ccc(C3=CCCCCC3)cc2C2(COC(N)=N2)C12COC2` (stereo not shown) [RP 165], 0.76 µM; in that of `NC1=NC2(CO1)c1cc(Br)ccc1OCC21CCCO1` (single isomer, unassigned) [RP 1b, 6′-bromo-4,5-dihydro-3H-dispiro[furan-2,3′-chromene-4′,4″-[1,3]oxazol]-2″-amine], 138 µM. In the case of `NC1=NC2(CO1)c1cc(Nc3ccccn3)ccc1OCC21COC1` (stereo not shown) [RP 25], the half-maximal inhibitory concentration (IC50) is 36.9 µM. For `COc1cc(-c2ccc3c(c2)C2(COC(N)=N2)C2(COC2)C(C)(C)O3)c(Cl)cn1` (stereo not shown) [RP 162], the IC50 stood at 1.04 µM. As for `CC1CC=C(c2ccc3c(c2)C2(COC(N)=N2)C2(COC2)C(C)(C)O3)CC1` (stereo not shown) [RP 166], the IC50 was 3.63 µM. For `NC1=NC2(CO1)c1cc(Br)ccc1OC(CCC(F)(F)F)C21COC1` (single isomer, unassigned) [RP 14b], the IC50 worked out at 44.2 µM. For the compound `NC1=NC2(CO1)c1cc(Br)ccc1OCC21COC1` (stereo not shown) [RP 2], the IC50 was 59.6 µM. Take `NC1=NC2(CO1)c1cc(-c3ccccc3)ccc1OC1(CCC1)C21COC1` (stereo not shown) [RP 123]: the half-inhibitory concentration (IC50) is 3.39 µM.

As to `NC1=NC2(COC1)c1cc(Br)ccc1OCC21CC1` (stereo not shown) [RP 214, 6′-bromo-6″H-dispiro[cyclopropane-1,3′-chromene-4′,3″-[1,4]oxazin]-5″-amine], the half-maximal inhibitory concentration (IC50) was determined as 40.3 µM. In the case of `CCC/C=C/c1ccc2c(c1)C1(COC(N)=N1)C1(COC1)C(C)(C)O2` (stereo not shown) [RP 167], the 50% inhibitory concentration (IC50) was determined as 0.869 µM. On to `NC1=NC2(CO1)c1cc(-c3ccc(F)nc3)ccc1OC1(CCC1)C21COC1` (stereo not shown) [RP 119], for which the IC50 turned out to be 3.56 µM. For the compound `CCCC1Oc2ccc(Br)cc2C2(C=C(N)OC2)C12COC2` (single isomer, unassigned) [RP 11b], the IC50 was 17.4 µM. Consider `CC1(C)Oc2ccc(-c3cncnc3)cc2C2(COC(N)=N2)C12COC2` (single isomer, unassigned) [RP 51a, 2′,2′-dimethyl-6′-(pyrimidin-5-yl)dispiro[1,3-oxazole-4,4′-chromene-3′,3″-oxetan]-2-amine], for which the IC50 was determined as 48.6 µM. With `NC1=NC2(CO1)c1cc(Br)ccc1OC1(CCC1)C21COC1` (stereo not shown) [RP 3], the half-maximal inhibitory concentration (IC50) was determined as 33.8 µM. Take `NC1=NC2(CO1)c1cc(Br)ccc1OCC21CCCO1` (single isomer, unassigned) [RP 1a, 6′-bromo-4,5-dihydro-3H-dispiro[furan-2,3′-chromene-4′,4″-[1,3]oxazol]-2″-amine]: the half-inhibitory concentration (IC50) was 73.3 µM. `CC1(C)Oc2ccc(-c3ccnc(Cl)c3Cl)cc2C2(COC(N)=N2)C12COC2` (stereo not shown) [RP 159]: the 50% inhibitory concentration (IC50) came to 2.12 µM. As to `Cc1ncccc1-c1ccc2c(c1)C1(COC(N)=N1)C1(COC1)C1(CCC1)O2` (stereo not shown) [RP 74], the IC50 came to 35.4 µM. As for `COc1cc(-c2ccc3c(c2)C2(COC(N)=N2)C2(COC2)C(C)(C)O3)c(F)cn1` (stereo not shown) [RP 161], the 50% inhibitory concentration (IC50) was 1.41 µM.

`CC(C)CC1Oc2ccc(Br)cc2C2(COC(N)=N2)C12COC2` (single isomer, unassigned) [RP 13a]: the half-inhibitory concentration (IC50) stood at 11.1 µM. For `NC1=NC2(c3cc(Br)ccc3OCC23CC3)C(F)(F)CO1` (stereo not shown) [RP 216, 6′-bromo-5″,5″-difluoro-5″,6″-dihydrodispiro[cyclopropane-1,3′-chromene-4′,4″-[1,3]oxazin]-2″-amine], the half-inhibitory concentration (IC50) came out at 55.8 µM. Regarding `NC1=NC2(CO1)c1cc(Br)ccc1OC(C1CC1)C21COC1` (single isomer, unassigned) [RP 12a], the 50% inhibitory concentration (IC50) was 38.7 µM. As to `CCC1Oc2ccc(Br)cc2C2(COC(N)=N2)C12COC2` (single isomer, unassigned) [RP 9b], the half-inhibitory concentration (IC50) came to 24.4 µM. Still for that read-out and setting: in the case of `NC1=NC2(CO1)c1cc(Br)ccc1OC(CCC(F)(F)F)C21COC1` (single isomer, unassigned) [RP 14a] it was 19 µM; in that of `NC1=NC2(CO1)c1cc(-c3cncnc3)ccc1OC(C1CC1)C21COC1` (stereo not shown) [RP 89], 4.67 µM; in that of `Cc1cccc(CCc2ccc3c(c2)C2(COC(N)=N2)C2(COC2)CO3)c1` (stereo not shown) [RP 38], 17.3 µM. For `N#Cc1cc(-c2ccc3c(c2)C2(COC(N)=N2)C2(COC2)C2(CCC2)O3)ccc1F` (stereo not shown) [RP 134], the IC50 stood at 3.63 µM. The same measure, in the same setting: in the case of `NC1=NC2(CO1)c1cc(Br)c(F)cc1OCC21CC1` (stereo not shown) [RP 18] it was 41.3 µM; in that of `NC1=NC2(CO1)c1cc(-c3ccccc3F)ccc1OC1(CCC1)C21COC1` (stereo not shown) [RP 124], 3.59 µM; in that of `CCSc1cccc(-c2ccc3c(c2)C2(COC(N)=N2)C2(COC2)C(C)(C)O3)c1` (stereo not shown) [RP 145], 0.933 µM. In the case of `NC1=NC2(CO1)c1cc(Br)ccc1OC(C1CC1)C21COC1` (single isomer, unassigned) [RP 12b], the IC50 is 81.3 µM. As to `NC1=NC2(CO1)c1cc(-c3ccc(F)nc3F)ccc1OC1(CCC1)C21COC1` (stereo not shown) [RP 121], the half-inhibitory concentration (IC50) worked out at 3.37 µM. Turning to `NC1=NC2(c3cc(Br)ccc3OCC23CC3)c2cccc(F)c21` (stereo not shown) [RP 40, 6′-bromo-4″-fluorodispiro[cyclopropane-1,3′-chromene-4′,1″-isoindol]-3″-amine], the IC50 worked out at 46.9 µM. Turning to `CC1(C)Oc2ccc(-c3cccc(OCC(F)(F)F)c3)cc2C2(COC(N)=N2)C12COC2` (stereo not shown) [RP 143], the IC50 was 1.26 µM. Still for that read-out and setting: the same measure for `CCCC1Oc2ccc(Br)cc2C2(C=C(N)OC2)C12COC2` (single isomer, unassigned) [RP 11a]: 15.6 µM; for `CC1(C)Oc2ccc(-c3cncc(C#N)c3)cc2C2(COC(N)=N2)C12COC2` (stereo not shown) [RP 160]: 0.981 µM.

Staying with this assay, now noted: read-out: Test Example 1 inhibition.
One may read the inhibition as the drop in the measured response relative to a control, in per cent. Take `COc1cnc(C(=O)Nc2ccc3c(c2)C2(COC(N)=N2)C2(COC2)C(C)(C)O3)cn1` (stereo in doubt) [Example 229a, N-[(4S)-2-amino-2′,2′-dimethyldispiro[1,3-oxazole-4,4′-chromene-3′,3″-oxetan]-6′-yl]-5-methoxypyrazine-2-carboxamide]: the inhibition at 30 µM turned out to be 47.6%.
